Among the data in publication PMC6916333, “A lysin motif effector subverts chitin‐triggered immunity to facilitate arbuscular mycorrhizal symbiosis” (The New Phytologist, 2019) are Kd values, retold here.

The target of this experiment is T1, RiSLM (Rhizophagus irregularis, UniProt U9TZV5).
T1 construct: gene GLOIN_2v1561425; without signal peptide; single LysM domain; expressed in E. coli ORIGAMI from pET-SUMO, SUMO tag removed by ULP-1; c; 7 kDa (faint 14 and 21 kDa bands, possible oligomers); NT.115 RED dye label
T1 sequence (U9TZV5 entry or part of it): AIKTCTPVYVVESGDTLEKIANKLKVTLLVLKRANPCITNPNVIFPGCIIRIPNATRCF
Briefly: microscale thermophoresis. In kind it is binding. The note with it: dye-labelled protein 20 nM.

[1] abbreviates: 50 mM Tris pH 7.4, 10 mM MgCl2, 150 mM NaCl, 0.05% Tween 20, 22 °C.

Like-named read-outs stand apart in the source and are kept apart here.

With `CC(=O)N[C@H]1[C@H](O[C@H]2[C@H](O)[C@@H](NC(C)=O)[C@H](O[C@H]3[C@H](O)[C@@H](NC(C)=O)[C@H](O[C@H]4[C@H](O)[C@@H](NC(C)=O)C(O)O[C@@H]4CO)O[C@@H]3CO)O[C@@H]2CO)O[C@H](CO)[C@@H](O[C@@H]2O[C@H](CO)[C@@H](O[C@@H]3O[C@H](CO)[C@@H](O[C@@H]4O[C@H](CO)[C@@H](O)[C@H](O)[C@H]4NC(C)=O)[C@H](O)[C@H]3NC(C)=O)[C@H](O)[C@H]2NC(C)=O)[C@@H]1O` (some centres unmarked) [CO7, chitoheptaose], the Kd under setting [1] is 8.8 ± 1.2 µM.
Still for that read-out and setting: the figure for `CC(=O)N[C@H]1[C@H](O[C@H]2[C@H](O)[C@@H](NC(C)=O)[C@H](O[C@H]3[C@H](O)[C@@H](NC(C)=O)C(O)O[C@@H]3CO)O[C@@H]2CO)O[C@H](CO)[C@@H](O[C@@H]2O[C@H](CO)[C@@H](O[C@@H]3O[C@H](CO)[C@@H](O)[C@H](O)[C@H]3NC(C)=O)[C@H](O)[C@H]2NC(C)=O)[C@@H]1O` (some centres unmarked) [CO5] is 59.4 ± 2.1 µM.
Consider LCO-IV(C18:1, S), for which, for the setting “25 mM sodium cacodylate pH 6.0, 1 mM MgCl2, 1 mM CaCl2, 250 mM sucrose, 0.175% Fos-choline-10, 0.5% ethanol, 22 °C, first (high-affinity) of two binding events, read-out: K d”, the Kd is around 0.015 µM.
LCO-IV(C18:1): the Kd (25 mM sodium cacodylate pH 6.0, 1 mM MgCl2, 1 mM CaCl2, 250 mM sucrose, 0.175% Fos-choline-10, 0.5% ethanol, 22 °C, single binding event, read-out: K d) was around 0.24 µM.
Consider `CC(=O)N[C@H]1[C@H](O[C@H]2[C@H](O)[C@@H](NC(C)=O)C(O)O[C@@H]2CO)O[C@H](CO)[C@@H](O[C@@H]2O[C@H](CO)[C@@H](O[C@@H]3O[C@H](CO)[C@@H](O)[C@H](O)[C@H]3NC(C)=O)[C@H](O)[C@H]2NC(C)=O)[C@@H]1O` (some centres unmarked) [CO4, chitotetraose], for which, under setting [1], the Kd was 37.1 ± 1.4 µM.
